Source: US20260285850A1, “SUBSTITUTED OXAZOLIDINONES AND IMIDAZOLINONES AS HERBICIDES” (FMC CORPORATION, priority 2023, published 2026)

Key:
Format in all cases: in vivo
[1] = tested on: sedge, umbrella (small-flower umbrella sedge, Cyperus difformis); assay: Test B flooded paddy test, visual plant response rating 0-100; conditions: 250 g ai/ha, Flood, applied to paddy water, evaluated after 13 days
How it was run: (§1)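 Each species was raised to two leaves before flooding to a 3 cm depth and dosing the water with compound. Injury was assessed by eye after 13 days under greenhouse conditions.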

rice (Oryza sativa) = assay: as above; conditions: 250 g ai/ha, Flood, applied to paddy water, evaluated after 13 days
How it was run: as §1

[2] = tested on: barnyardgrass (Echinochloa crusgalli); assay: as above; conditions: 250 g ai/ha, Flood, applied to paddy water, evaluated after 13 days
How it was run: as §1

[3] = tested on: ducksalad (Heteranthera limosa); assay: as above; conditions: 250 g ai/ha, Flood, applied to paddy water, evaluated after 13 days
How it was run: as §1

[4] = tested on: oat, wild (wild oat, Avena fatua); assay: Test A preemergence soil spray, visual injury rating 0-100; conditions: 10 days
How it was run: (§2)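 Greenhouse test: loam/sand pots received a surfactant-containing formulation, as a preemergence directed soil spray or a postemergence spray on young plants. Injury was judged visually at day 10 relative to untreated controls.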

corn (Zea mays) [5] = assay: as above; conditions: 10 days
How it was run: as §2

[6] = tested on: green foxtail (Setaria viridis); assay: as above; conditions: 10 days
How it was run: as §2

[7] = tested on: barnyardgrass (Echinochloa crus-galli); assay: as above; conditions: 10 days
How it was run: as §2

[8] = tested on: wheat (Triticum aestivum); assay: as above; conditions: 10 days
How it was run: as §2

[9] = tested on: ryegrass, Italian (italian ryegrass, Lolium multiflorum); assay: as above; conditions: 10 days
How it was run: as §2

kochia (Bassia scoparia) [10] = assay: as above; conditions: 10 days
How it was run: as §2

[11] = tested on: ragweed (common ragweed, Ambrosia artemisiifolia); assay: as above; conditions: 10 days
How it was run: as §2

[12] = tested on: blackgrass (Alopecurus myosuroides); assay: as above; conditions: 10 days
How it was run: as §2

soybean (Glycine max) [13] = assay: as above; conditions: 10 days
How it was run: as §2

[14] = tested on: oat, wild (wild oat, Avena fatua); assay: Test A postemergence application, visual injury rating 0-100
How it was run: as §2

[15] = tested on: horseweed (Erigeron canadensis); assay: as above
How it was run: as §2

corn (Zea mays) [16] = assay: as above
How it was run: as §2

[17] = tested on: galium (catchweed bedstraw, Galium aparine); assay: as above
How it was run: as §2

[18] = tested on: green foxtail (Setaria viridis); assay: as above
How it was run: as §2

[19] = tested on: barnyardgrass (Echinochloa crus-galli); assay: as above
How it was run: as §2

[20] = tested on: wheat (Triticum aestivum); assay: as above
How it was run: as §2

[21] = tested on: ryegrass, Italian (italian ryegrass, Lolium multiflorum); assay: as above
How it was run: as §2

kochia (Bassia scoparia) [22] = assay: as above
How it was run: as §2

[23] = tested on: ragweed (common ragweed, Ambrosia artemisiifolia); assay: as above
How it was run: as §2

[24] = tested on: blackgrass (Alopecurus myosuroides); assay: as above
How it was run: as §2

soybean (Glycine max) [25] = assay: as above
How it was run: as §2

[26] = tested on: palmer (palmer amaranth, palmer pigweed, Amaranthus palmeri); assay: as above
How it was run: as §2

[27] = 62 g ai/ha, 0 = no effect, 100 = complete control
[28] = 62 g ai/ha, postemergence, 10 days, 0 = no effect, 100 = complete control
[29] = Postemergence, 16 g ai/ha, greenhouse 10 days, 0 no effect, 100 complete control

CC1(C(=O)NC2CC(C(=O)O)C2)CN(c2cc(F)cc(Cl)c2)C(=O)O1 (racemic) [Compound 139]
Plant response rating, Sedge, Umbrella (0 to 100 scale, 0 is no effect and 100 is complete control) [1]: 0 | Plant response rating, Rice (0 to 100 scale, 0 is no effect and 100 is complete control) (rice (Oryza sativa)): 0 | Plant response rating, Barnyardgrass (0 to 100 scale, 0 is no effect and 100 is complete control) [2]: 0 | Plant response rating, Ducksalad (0 to 100 scale, 0 is no effect and 100 is complete control) [3]: 0 | Oat, Wild plant response rating ([4]; 16 g ai/ha, 0 to 100 scale): 20 | Oat, Wild plant response rating (0-100) [4, 27]: 80 | Corn plant response rating (corn (Zea mays) [5]; 16 g ai/ha, 0 to 100 scale): 0 | Corn plant response rating (0-100) (corn (Zea mays) [5]; [27]): 90 | Foxtail, Green plant response rating ([6]; 16 g ai/ha, 0 to 100 scale): 30 | Foxtail, Green plant response rating (0-100) [6, 27]: 90 | Barnyardgrass plant response rating ([7]; 16 g ai/ha, 0 to 100 scale): 10 | Barnyardgrass plant response rating (0-100) [7, 27]: 70 | Wheat plant response rating ([8]; 16 g ai/ha, 0 to 100 scale): 90 | Wheat plant response rating (0-100) [8, 27]: 90 | Ryegrass, Italian plant response rating ([9]; 16 g ai/ha, 0 to 100 scale): 30 | Ryegrass, Italian plant response rating (0-100) [9, 27]: 90 | Kochia plant response rating (kochia (Bassia scoparia) [10]; 16 g ai/ha, 0 to 100 scale): 0 | Kochia plant response rating (0-100) (kochia (Bassia scoparia) [10]; [27]): 90 | Ragweed plant response rating ([11]; 16 g ai/ha, 0 to 100 scale): 0 | Ragweed plant response rating (0-100) [11, 27]: 0 | Blackgrass plant response rating ([12]; 16 g ai/ha, 0 to 100 scale): 20 | Blackgrass plant response rating (0-100) [12, 27]: 80 | Soybean plant response rating (soybean (Glycine max) [13]; 16 g ai/ha, 0 to 100 scale): 0 | Soybean plant response rating (0-100) (soybean (Glycine max) [13]; [27]): 0 | Oat, Wild plant response rating (0-100) [14, 28]: 90 | Oat, Wild plant response rating (0 to 100 scale) [14, 29]: 70 | Horseweed plant response rating (0-100) [15, 28]: 50 | Horseweed plant response rating (0 to 100 scale) [15, 29]: 0 | Corn plant response rating (0-100) (corn (Zea mays) [16]; [28]): 100 | Corn plant response rating (0 to 100 scale) (corn (Zea mays) [16]; [29]): 100 | Galium plant response rating (0-100) [17, 28]: 80 | Galium plant response rating (0 to 100 scale) [17, 29]: 50 | Foxtail, Green plant response rating (0-100) [18, 28]: 90 | Foxtail, Green plant response rating (0 to 100 scale) [18, 29]: 90 | Barnyardgrass plant response rating (0-100) [19, 28]: 100 | Barnyardgrass plant response rating (0 to 100 scale) [19, 29]: 90 | Wheat plant response rating (0-100) [20, 28]: 90 | Wheat plant response rating (0 to 100 scale) [20, 29]: 90 | Ryegrass, Italian plant response rating (0-100) [21, 28]: 70 | Ryegrass, Italian plant response rating (0 to 100 scale) [21, 29]: 30 | Kochia plant response rating (0-100) (kochia (Bassia scoparia) [22]; [28]): 90 | Kochia plant response rating (0 to 100 scale) (kochia (Bassia scoparia) [22]; [29]): 70 | Ragweed plant response rating (0-100) [23, 28]: 40 | Ragweed plant response rating (0 to 100 scale) [23, 29]: 40 | Blackgrass plant response rating (0-100) [24, 28]: 100 | Blackgrass plant response rating (0 to 100 scale) [24, 29]: 90 | Soybean plant response rating (0-100) (soybean (Glycine max) [25]; [28]): 60 | Soybean plant response rating (0 to 100 scale) (soybean (Glycine max) [25]; [29]): 60 | Pigweed, Palmer plant response rating (0-100) [26, 28]: 70 | Pigweed, Palmer plant response rating (0 to 100 scale) [26, 29]: 20
